Source: ChEMBL document CHEMBL1201862, “PubChem BioAssay data set” (2004)
Activity calls are given as the source filed them.

Experiments:
[1] = target: T1, High affinity choline transporter 1 (Homo sapiens, UniProt Q9GZV3); assay: CHT activators, dose response, cell-based, 10-point CRC, membrane potential dye (AID 602376); format: functional
T1 sequence (Q9GZV3 whole entry): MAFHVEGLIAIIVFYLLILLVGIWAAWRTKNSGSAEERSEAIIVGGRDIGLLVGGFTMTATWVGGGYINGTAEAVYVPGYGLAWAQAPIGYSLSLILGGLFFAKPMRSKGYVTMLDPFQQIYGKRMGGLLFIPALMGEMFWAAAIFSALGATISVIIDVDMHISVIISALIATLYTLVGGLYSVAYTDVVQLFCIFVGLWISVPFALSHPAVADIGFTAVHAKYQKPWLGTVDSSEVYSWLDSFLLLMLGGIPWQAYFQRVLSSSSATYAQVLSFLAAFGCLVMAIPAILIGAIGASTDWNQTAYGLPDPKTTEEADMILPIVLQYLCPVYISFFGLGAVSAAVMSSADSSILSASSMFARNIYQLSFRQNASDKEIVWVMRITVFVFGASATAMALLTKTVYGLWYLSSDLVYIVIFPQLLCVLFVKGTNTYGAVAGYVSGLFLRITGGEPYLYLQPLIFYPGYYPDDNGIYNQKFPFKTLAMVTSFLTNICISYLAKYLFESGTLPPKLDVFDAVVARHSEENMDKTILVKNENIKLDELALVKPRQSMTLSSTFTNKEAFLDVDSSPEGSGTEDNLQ

[2] = target: Botulinum neurotoxin type A (Clostridium botulinum (strain Hall / ATCC 3502 / NCTC 13319 / Type A), UniProt P0DPI1); assay: High-throughput multiplex microsphere dose response for inhibitors of toxin protease, specifically Botulinum neurotoxin light chain A protease, compounds from Cherry Pick 01.; format: functional; conditions: read-out: EC50_MICROM
Botulinum neurotoxin type A, sequence (P0DPI1 2-448 limits assumed): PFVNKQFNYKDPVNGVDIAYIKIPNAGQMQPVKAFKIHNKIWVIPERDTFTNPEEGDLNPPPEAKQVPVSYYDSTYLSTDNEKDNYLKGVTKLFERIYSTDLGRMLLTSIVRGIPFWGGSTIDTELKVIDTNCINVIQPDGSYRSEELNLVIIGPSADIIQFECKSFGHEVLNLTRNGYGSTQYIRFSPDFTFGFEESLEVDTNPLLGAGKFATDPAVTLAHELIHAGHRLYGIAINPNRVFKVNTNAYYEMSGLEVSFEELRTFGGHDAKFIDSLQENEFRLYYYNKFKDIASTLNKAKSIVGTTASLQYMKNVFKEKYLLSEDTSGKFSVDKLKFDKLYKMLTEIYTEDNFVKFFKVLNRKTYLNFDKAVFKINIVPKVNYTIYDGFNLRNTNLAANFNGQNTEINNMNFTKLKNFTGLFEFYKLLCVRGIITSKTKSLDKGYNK

[3] = microbe, parasite or virus in culture; format: functional; conditions: Mycobacterium tuberculosis
[4] = tested on: INS1; assay: beta cell apoptosis inhibitors, cytokine rescue, dose response, luminescence, retest (AID 449756); format: functional, cell-based; conditions: Rattus norvegicus;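 note: cell death triggered by IL-1 beta plus TNF-alpha plus IFN-gamma mixture; protective hits raise ATP signal compared with cytokine alone wells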
[5] = target: Glycogen synthase kinase-3 beta (Homo sapiens, UniProt P49841); format: functional;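 note: value comes from a broad kinome profiling panel, with GSK3B as the panel member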
Glycogen synthase kinase-3 beta, sequence (P49841 whole entry): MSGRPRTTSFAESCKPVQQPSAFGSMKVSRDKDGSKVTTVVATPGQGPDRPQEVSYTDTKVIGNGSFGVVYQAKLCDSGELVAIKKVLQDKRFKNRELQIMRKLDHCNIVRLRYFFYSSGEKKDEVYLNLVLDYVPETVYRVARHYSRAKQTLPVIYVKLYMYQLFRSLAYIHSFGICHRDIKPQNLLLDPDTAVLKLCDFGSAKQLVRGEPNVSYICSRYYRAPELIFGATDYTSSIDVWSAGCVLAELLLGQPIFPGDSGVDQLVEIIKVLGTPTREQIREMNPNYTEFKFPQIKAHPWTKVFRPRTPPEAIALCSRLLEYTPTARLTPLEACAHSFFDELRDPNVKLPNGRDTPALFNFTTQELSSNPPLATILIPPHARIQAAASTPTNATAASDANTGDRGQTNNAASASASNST

[6] = target: Cell division cycle 7-related protein kinase (Homo sapiens, UniProt O00311); format: functional;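 note: value obtained from a kinome-wide kinase panel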
Cell division cycle 7-related protein kinase, sequence (O00311 whole entry): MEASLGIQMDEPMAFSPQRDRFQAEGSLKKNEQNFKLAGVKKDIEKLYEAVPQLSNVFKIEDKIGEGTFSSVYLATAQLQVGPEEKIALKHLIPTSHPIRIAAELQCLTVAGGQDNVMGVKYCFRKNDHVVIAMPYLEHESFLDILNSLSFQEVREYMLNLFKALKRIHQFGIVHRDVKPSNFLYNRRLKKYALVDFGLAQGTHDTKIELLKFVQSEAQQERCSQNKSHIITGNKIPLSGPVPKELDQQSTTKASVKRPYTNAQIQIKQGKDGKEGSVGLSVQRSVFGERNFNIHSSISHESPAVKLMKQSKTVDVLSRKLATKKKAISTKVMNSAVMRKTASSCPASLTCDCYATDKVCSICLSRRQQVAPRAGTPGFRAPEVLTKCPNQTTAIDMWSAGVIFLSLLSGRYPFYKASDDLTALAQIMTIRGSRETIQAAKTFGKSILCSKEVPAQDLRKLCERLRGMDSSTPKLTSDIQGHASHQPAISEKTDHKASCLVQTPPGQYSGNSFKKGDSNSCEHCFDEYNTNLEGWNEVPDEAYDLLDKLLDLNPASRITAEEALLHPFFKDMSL

[7] = target: Cyclin-dependent kinase 2 (Homo sapiens, UniProt P24941); format: functional;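 note: CDK2 measured as one member of a broad kinome profiling panel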
[8] = target: Serine/threonine-protein kinase pim-1 (Homo sapiens, UniProt P11309); format: functional
Serine/threonine-protein kinase pim-1, sequence (P11309 whole entry): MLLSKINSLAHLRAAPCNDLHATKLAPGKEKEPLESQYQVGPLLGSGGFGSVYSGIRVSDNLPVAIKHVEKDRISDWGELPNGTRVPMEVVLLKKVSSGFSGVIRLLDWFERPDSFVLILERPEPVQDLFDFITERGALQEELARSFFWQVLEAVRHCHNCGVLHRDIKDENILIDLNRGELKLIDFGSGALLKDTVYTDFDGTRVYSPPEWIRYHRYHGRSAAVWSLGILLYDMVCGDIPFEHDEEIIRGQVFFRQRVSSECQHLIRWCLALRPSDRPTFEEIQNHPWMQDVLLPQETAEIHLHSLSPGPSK

[9] = target: cAMP-dependent protein kinase catalytic subunit alpha (Homo sapiens, UniProt P17612); format: functional
[10] = target: Dual specificity protein kinase CLK4 (Homo sapiens, UniProt Q9HAZ1); format: functional
[11] = target: Mitogen-activated protein kinase kinase kinase kinase 4 (Homo sapiens, UniProt O95819); format: functional
Mitogen-activated protein kinase kinase kinase kinase 4, sequence (O95819 whole entry): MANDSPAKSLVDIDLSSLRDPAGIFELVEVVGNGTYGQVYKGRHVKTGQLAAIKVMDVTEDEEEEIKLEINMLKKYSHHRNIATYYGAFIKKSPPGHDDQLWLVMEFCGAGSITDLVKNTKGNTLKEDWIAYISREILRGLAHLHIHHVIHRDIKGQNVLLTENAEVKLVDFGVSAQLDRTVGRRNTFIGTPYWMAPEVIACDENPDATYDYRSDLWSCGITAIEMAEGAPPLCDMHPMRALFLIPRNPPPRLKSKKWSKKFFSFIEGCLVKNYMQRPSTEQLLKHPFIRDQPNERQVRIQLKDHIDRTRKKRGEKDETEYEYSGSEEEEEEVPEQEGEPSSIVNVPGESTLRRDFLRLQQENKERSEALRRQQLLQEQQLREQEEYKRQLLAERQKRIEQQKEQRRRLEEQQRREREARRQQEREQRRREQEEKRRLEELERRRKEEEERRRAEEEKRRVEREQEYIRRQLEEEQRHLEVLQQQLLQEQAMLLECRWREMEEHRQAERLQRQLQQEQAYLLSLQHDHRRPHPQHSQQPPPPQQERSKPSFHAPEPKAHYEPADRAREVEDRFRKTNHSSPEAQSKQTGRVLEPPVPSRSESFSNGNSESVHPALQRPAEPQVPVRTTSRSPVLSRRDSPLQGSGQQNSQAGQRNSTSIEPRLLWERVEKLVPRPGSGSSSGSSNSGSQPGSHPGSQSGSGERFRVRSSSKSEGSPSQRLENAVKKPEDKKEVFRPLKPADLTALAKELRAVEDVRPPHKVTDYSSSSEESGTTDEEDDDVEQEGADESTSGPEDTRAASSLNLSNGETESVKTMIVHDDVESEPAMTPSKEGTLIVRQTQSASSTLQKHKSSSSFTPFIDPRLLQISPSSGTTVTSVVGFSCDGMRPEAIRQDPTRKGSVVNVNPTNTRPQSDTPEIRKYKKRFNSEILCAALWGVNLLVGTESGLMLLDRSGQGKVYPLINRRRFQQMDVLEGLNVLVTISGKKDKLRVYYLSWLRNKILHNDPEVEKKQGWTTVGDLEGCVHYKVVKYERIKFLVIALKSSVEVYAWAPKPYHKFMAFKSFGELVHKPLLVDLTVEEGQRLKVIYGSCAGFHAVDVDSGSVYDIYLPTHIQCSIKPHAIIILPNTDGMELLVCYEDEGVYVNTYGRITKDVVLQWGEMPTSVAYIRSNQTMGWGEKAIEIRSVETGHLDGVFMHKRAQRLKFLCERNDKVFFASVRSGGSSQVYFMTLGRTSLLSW

[12] = target: Interleukin-1 receptor-associated kinase 4 (Homo sapiens, UniProt Q9NWZ3); format: functional
[13] = target: Homeodomain-interacting protein kinase 2 (Homo sapiens, UniProt Q9H2X6); format: functional;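 note: measured within a kinome-wide kinase profiling panel, HIPK2 being one panel member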
Homeodomain-interacting protein kinase 2, sequence (Q9H2X6 whole entry): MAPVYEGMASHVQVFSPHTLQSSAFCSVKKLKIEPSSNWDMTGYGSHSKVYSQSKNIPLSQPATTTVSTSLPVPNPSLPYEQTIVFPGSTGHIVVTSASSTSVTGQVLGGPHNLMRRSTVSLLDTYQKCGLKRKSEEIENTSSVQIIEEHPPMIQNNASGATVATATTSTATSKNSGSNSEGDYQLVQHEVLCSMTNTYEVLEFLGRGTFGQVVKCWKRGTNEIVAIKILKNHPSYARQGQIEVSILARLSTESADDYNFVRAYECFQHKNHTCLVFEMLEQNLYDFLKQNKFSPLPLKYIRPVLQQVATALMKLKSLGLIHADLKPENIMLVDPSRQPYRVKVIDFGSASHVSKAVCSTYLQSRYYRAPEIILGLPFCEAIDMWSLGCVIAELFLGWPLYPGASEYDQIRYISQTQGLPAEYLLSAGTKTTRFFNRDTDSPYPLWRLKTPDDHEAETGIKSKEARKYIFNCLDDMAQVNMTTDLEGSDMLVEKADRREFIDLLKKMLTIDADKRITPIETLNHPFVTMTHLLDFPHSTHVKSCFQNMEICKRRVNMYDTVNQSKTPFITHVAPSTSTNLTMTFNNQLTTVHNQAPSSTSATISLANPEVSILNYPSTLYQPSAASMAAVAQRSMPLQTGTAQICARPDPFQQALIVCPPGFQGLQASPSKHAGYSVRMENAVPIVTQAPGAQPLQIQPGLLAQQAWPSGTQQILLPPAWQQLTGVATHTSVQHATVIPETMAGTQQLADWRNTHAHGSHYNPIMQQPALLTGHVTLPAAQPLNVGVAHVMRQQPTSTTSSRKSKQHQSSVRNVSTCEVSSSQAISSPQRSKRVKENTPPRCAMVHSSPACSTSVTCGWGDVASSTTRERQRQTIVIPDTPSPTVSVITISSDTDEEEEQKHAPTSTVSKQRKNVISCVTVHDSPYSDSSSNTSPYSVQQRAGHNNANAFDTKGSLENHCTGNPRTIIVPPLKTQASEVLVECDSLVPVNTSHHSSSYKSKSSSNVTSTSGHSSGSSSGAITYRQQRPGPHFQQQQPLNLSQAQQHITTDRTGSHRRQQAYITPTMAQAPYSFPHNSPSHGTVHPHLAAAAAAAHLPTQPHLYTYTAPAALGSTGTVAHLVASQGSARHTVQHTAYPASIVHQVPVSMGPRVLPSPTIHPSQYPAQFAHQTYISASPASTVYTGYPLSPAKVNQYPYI

[14] = target: Glutathione-S-transferase (Schistosoma japonicum, UniProt Q26513); assay: biotin-GST/anti-GST TR-FRET signal inhibitors, dose response, artefact control for Vif-APOBEC3G degradation inhibitor project, biochemical (AID 1117362); format: functional
Glutathione-S-transferase, sequence (Q26513 whole entry): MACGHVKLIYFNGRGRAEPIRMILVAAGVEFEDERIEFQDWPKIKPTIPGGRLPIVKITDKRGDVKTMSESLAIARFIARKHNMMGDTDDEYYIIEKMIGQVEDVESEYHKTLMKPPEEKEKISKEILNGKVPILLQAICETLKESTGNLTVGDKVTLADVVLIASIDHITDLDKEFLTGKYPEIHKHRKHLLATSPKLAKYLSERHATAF

[15] = target: T2, Sentrin-specific protease 8 (Homo sapiens, UniProt Q96LD8); format: functional
T2 sequence (Q96LD8 whole entry): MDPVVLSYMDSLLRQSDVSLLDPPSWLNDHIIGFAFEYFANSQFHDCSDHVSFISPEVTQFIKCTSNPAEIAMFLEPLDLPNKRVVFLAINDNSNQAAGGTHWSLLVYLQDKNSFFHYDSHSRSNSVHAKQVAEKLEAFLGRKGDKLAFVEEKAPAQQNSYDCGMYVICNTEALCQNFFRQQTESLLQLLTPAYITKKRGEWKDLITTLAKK

[16] = target: Genome polyprotein (dengue virus type 2, UniProt P29990); assay: Dengue-2 NS5 methyltransferase inhibitors, primary screen, biochemical, confirmation dose response (AID 588689); format: functional
[17] = target: Latent membrane protein 1 (Human herpesvirus 4 (strain B95-8), UniProt P03230); assay: TES1-eGFP NF-kB reporter inhibition versus Tet-On dsRED, dose response, selectivity assay for LMP1 NF-kB inhibitor project, imaging, HEK293T, dual-color eGFP/dsRED, cherry-picks (AID 588398); format: functional, cell-based
Latent membrane protein 1, sequence (P03230 whole entry): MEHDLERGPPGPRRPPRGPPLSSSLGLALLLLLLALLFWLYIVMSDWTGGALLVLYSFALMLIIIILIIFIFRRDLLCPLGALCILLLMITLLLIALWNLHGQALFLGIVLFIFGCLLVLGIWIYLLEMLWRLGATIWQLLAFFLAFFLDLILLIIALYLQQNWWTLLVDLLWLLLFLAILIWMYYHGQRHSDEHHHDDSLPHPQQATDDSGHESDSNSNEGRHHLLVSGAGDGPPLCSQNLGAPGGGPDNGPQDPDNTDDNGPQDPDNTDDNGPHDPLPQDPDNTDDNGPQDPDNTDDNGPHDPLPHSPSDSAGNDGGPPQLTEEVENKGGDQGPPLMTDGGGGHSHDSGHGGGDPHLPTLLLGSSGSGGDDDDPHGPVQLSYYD

[18] = target: T2, Sentrin-specific protease 8; format: functional; remark: listed apart in the source
[19] = AlphaScreen signal interference compounds, dose response, artefact control for ARNT-TACC3 interaction inhibitor project, biochemical, luminescence, cherry-pick (AID 651705); format: functional;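 note: AlphaScreen bead proximity signal that flags compounds interfering with the detection technology; potency reflects signal decrease which marks the compound as an assay artifact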
[20] = THP-1 cell cytotoxicity, dose response, cytotoxicity control for Vif-APOBEC3G degradation inhibitor project, THP-1 cells (AID 1117359); format: functional; conditions: Human immunodeficiency virus 1, THP-1
[21] = target: T3, DNA repair protein RAD52 homolog (Homo sapiens, UniProt P43351); format: functional, biochemical
T3 sequence (P43351 whole entry): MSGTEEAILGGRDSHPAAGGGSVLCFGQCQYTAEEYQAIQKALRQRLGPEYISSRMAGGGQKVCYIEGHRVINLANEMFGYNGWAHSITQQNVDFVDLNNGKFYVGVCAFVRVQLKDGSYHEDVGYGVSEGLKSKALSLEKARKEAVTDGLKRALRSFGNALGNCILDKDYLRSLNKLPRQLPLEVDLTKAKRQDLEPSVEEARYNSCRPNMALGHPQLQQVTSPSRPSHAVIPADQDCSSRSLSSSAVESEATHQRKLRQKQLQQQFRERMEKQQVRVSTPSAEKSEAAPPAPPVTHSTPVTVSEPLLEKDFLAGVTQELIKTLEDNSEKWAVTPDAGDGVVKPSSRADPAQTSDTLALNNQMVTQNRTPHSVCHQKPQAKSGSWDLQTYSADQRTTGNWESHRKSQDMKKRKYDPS

[22] = target: T4, Caspase-3 (Homo sapiens, UniProt P42574); assay: Dose-response confirmation of uHTS inhibitor hits of Sentrin-Specific Protease 8 in a Caspase-3 Fluorescence assay.; format: functional
T4 sequence (P42574 whole entry): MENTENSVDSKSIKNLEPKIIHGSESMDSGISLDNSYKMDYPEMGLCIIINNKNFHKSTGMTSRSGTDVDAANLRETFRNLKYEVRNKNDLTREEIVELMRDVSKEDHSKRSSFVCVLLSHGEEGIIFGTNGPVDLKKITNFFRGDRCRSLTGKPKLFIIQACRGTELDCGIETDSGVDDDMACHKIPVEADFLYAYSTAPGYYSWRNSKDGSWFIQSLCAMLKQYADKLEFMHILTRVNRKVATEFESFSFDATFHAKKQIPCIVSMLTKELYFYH

CCCCCCCCC1=NCCc2c1[nH]c1ccccc21
EC50 [1]: 13.7 µM (active)

O=c1c(Cl)c2oc3ccccc3nc-2c2ccccc12
EC50 [2]: 12.4 µM (active) | CC50 [3]: > 40 µM (active) | AC50 [4]: 2.61 µM (active)

Cn1cc(-c2ccccc2)c2nc(-c3ccncc3)cc(=O)n21
Ki [5]: 0.126 µM (active) | Ki [6]: 0.0158 µM (active) | Ki [7]: > 7.94 µM (inactive) | Ki [8]: 2.51 µM (active) | Ki [9]: 5.01 µM (active) | Ki [10]: 0.0316 µM (active) | Ki [11]: 1.26 µM (active) | Ki [12]: > 10 µM (inactive) | Ki [13]: 0.1 µM (active)

COc1cc(NCCCCCCN)c2ncccc2c1OC
IC50 [14]: 2.53 µM (active) | IC50 [15]: 0.208 µM (active) | IC50 [16]: > 100 µM (active) | AC50 [17]: 34.4 µM (active) | IC50 [18]: 0.434 µM (active) | AC50 [19]: 132 µM (active) | CC50 [20]: > 40 µM (active) | AC50 [21]: 0.87 µM (active) | IC50 [22]: 4.23 µM (active)
